The record followed here is patent US20080050764A1, “Method and Apparatus for Measuring Enviromental Allergen” (Japan Science and Technology Agency, priority 2003, published 2008).

Entries after “also recorded” stand apart in the source; their conditions may differ. * marks the point of attachment. AMC = Cc1cc(=O)oc2cc(N*)ccc12; Boc = CC(C)(C)OC(=O)*

The test system of test [1] is Mite Extract Df (Mite dermatophagoides farinae). As to the kind of experiment: Protease substrate cleavage by mite extract, fluorescence (Example 9). It is filed as biochemical. The settings on record: substrate 10 mM in DMSO, room temperature overnight, excitation 355 nm. As to the method:
• Mite Extract Df (Mite dermatophagoides farinae) (obtained by extracting mites with phosphate buffer and freeze-drying the soluble fragment) (produced by LSL) • Protease Substrates (Met-MCA, Boc-Gln-Ala-Arg-MCA, Boc-Val-Leu-Lys-MCA, Bz-Arg-MCA, Glt-Ala-Ala-Phe-MCA (Glt means glutaryl) (All of them were produced by PEPTIDE INSTITUTE INC)
In phosphate buffer or water, mites were suspended to a concentration of 1 mg/ml, and the suspension was diluted with phosphate buffer as appropriate. Each of the dilutions in an amount of 50 μL was mixed with 5 μL of the substrate dissolved in DMSO to a concentration of 10 mM, and the resulting mixture was incubated at room temperature overnight. Using a plate reader, excitation was carried out at a wavelength of 355 nm, and fluorescence intensity at 460 nm was measured.

Test [2] has as its system Cedar Pollen (Cedar Pollen-Cj Japanese Cedar). As to the kind of experiment: Measurement of cedar pollen with protease substrates, fluorescence (Example 7). Type of test: biochemical. Particulars: substrate 10 mM in DMSO, 37° C. 15 minutes, excitation 355 nm. As to the method: • Cedar Pollen (Cedar Pollen-Cj Japanese Cedar) (produced by LSL) • Leu-MCA and Boc-Val-Leu-Lys-MCA as protease substrates (both of them were produced by PEPTIDE INSTITUTE INC)
Cedar pollen was suspended in phosphate buffer to a concentration of 1 mg/ml and the suspension was diluted with phosphate buffer as appropriate. Each of the dilutions in an amount of 45 μL was mixed with 5 μL of the substrate dissolved in DMSO to a concentration of 10 mM, and the resulting mixture was incubated at 37° C. for 15 minutes. Using a plate reader, excitation was carried out at a wavelength of 355 nm, and fluorescence intensity at 460 nm was measured.

Another test concerns Cedar Pollen Extract. As to the kind of experiment: Quantification of cedar pollen extract with protease substrates, fluorescence (Example 8). It is filed as biochemical, Japanese Cedar. Particulars: substrate 10 mM in DMSO, 37° C. 15 minutes, excitation 355 nm. As to the method: • Cedar Pollen Extract (Cedar Pollen Extrace-CJ) (produced by LSL) • Leu-MCA and Boc-Val-Leu-Lys-MCA as protease substrates (both of them were produced by PEPTIDE INSTITUTE INC)
The cedar pollen extract was the centrifugation supernatant obtained by stirring cedar pollen in 0.125 M NaHCO3 (pH8) for 16 hours, and lightly homogenizing the mixture, followed by centrifugation. The extract was suspended in 5 mM borate buffer (pH8.0) containing 0.9% NaCl to a concentration of 666 μg/ml, and the resulting mixture was diluted with phosphate buffer as appropriate. Each of the samples in an amount of 45 μL was mixed with 5 μL of the substrate dissolved in DMSO to a concentration of 10 mM, and the resulting mixture was incubated at 37° C. for 15 minutes. Using a plate reader, excitation was carried out at a wavelength of 355 nm, and fluorescence intensity at 460 nm was measured.

Regarding Boc-Gln-Ala-Arg-{AMC}, the “cleavage of substrate by mite antigen (fluorescence intensity at 460 nm)” value in test [1] is reported as “effectively measured”.
Same read-out and setting: for `CSCCC(N)C(=O)Nc1ccc2c(C)cc(=O)oc2c1` (stereo not drawn) [Met-MCA] the value was “effectively measured”; for Glt-Ala-Ala-Phe-MCA, “not substantially cleaved”.
Same read-out and setting: for `Cc1cc(=O)oc2cc(NC(=O)[C@H](CCCNC(=N)N)NC(=O)c3ccccc3)ccc12` [Bz-Arg-MCA] the value was “not substantially cleaved”.
On to `Cl.NC(N)=NCCCC(NC(=O)c1ccccc1)C(=O)Nc1ccc([N+](=O)[O-])cc1` (racemic) [Bz-DL-Arg-pNA.HCl], for which the “reaction of substrate with cedar pollen (fluorescence intensity at 460 nm)” value in test [2] is reported as “reacts”.
For Boc-Val-Leu-Lys-{AMC}, in test [1], the “cleavage of substrate by mite antigen (fluorescence intensity at 460 nm)” value was “effectively measured; also recorded: reacts”. Moreover, the “reaction of substrate with cedar pollen (fluorescence intensity at 460 nm)” value in test [2] is “fluorescence was not dependent on the amount of cedar pollen; also recorded: does not react”. Moreover, in the test with Cedar Pollen Extract, the “reaction of substrate with cedar pollen extract (fluorescence intensity at 460 nm)” value is reported as “fluorescence was not dependent on the amount of cedar pollen”.
Turning to `Cc1cc(=O)oc2cc(NC(=O)C(N)CC(C)C)ccc12` (stereo not drawn) [Leu-MCA], in test [2], the “reaction of substrate with cedar pollen (fluorescence intensity at 460 nm)” value is recorded as “reacts”.
